# Earlier results as cited in PubChem BioAssay AID1259409 (Chemical Carcinogenesis Research Information System (CCRIS), 2018).
# Test system: rodent chemically induced tumor inhibition, incidence and multiplicity
# Test: CCRIS tumor inhibitor studies
smiles,measurement,setting,value
Oc1ccccc1O,"tumour outcome (control, treated, inhibition, significance)","Carcinogen: 3,2'-DIMETHYL-4-AMINOBIPHENYL, 13394-86-0, Dose [Inhibitor]: 0, 0.8% IN BASAL DIET BEGINNING POST CARCINOGEN TREATMENT AND CONTINUING FOR 40 (STUDY DURATION: 60 WK), Route [Inhibitor]: ORAL, Species: RAT, Strain/Sex: F344/MALE, Target Tissue: Type of Lesion: SUBCUTIS: TUMOR, Dose [Carcinogen]: 50 MG/KG 1/2 WK FOR 20 WK TO RATS MAINTAINED ON ETHINYL ESTRADIOL CONTAINING DIET (0.75 PPM) FOR 1 WK CYCLED WITH ETHINY, Promoter: ETHINYL ESTRADIOL, 57-63-6","1/10 (10%), 1/11 (9%), 10%, not significant"
same,"tumour outcome (control, treated, inhibition, significance)","Carcinogen: 3,2'-DIMETHYL-4-AMINOBIPHENYL, 13394-86-0, Dose [Inhibitor]: 0, 0.8% IN BASAL DIET BEGINNING POST CARCINOGEN TREATMENT AND CONTINUING FOR 40 WK (STUDY DURATION: 60 WK), Route [Inhibitor]: ORAL, Species: RAT, Strain/Sex: F344/MALE, Target Tissue: Type of Lesion: LARGE INTESTINE: ADENOMA AND ADENOCARCINOMA, Dose [Carcinogen]: 50 MG/KG 1/2 WK FOR 20 WK TO RATS MAINTAINED ON ETHINYL ESTRADIOL CONTAINING DIET (0.75 PPM) FOR 1 WK CYCLED WITH ETHINY, Promoter: ETHINYL ESTRADIOL, 57-63-6","3/10 (30%), 5/11 (45%), -50%, not significant"
same,"tumour outcome (control, treated, inhibition, significance)","Carcinogen: 3,2'-DIMETHYL-4-AMINOBIPHENYL, 13394-86-0, Dose [Inhibitor]: 0, 0.8% IN BASAL DIET BEGINNING POST CARCINOGEN TREATMENT AND CONTINUING FOR 40 WK (STUDY DURATION: 60 WK), Route [Inhibitor]: ORAL, Species: RAT, Strain/Sex: F344/MALE, Target Tissue: Type of Lesion: PANCREAS: ACINAR CELL NODULE, Dose [Carcinogen]: 50 MG/KG 1/2 WK FOR 20 WK TO RATS MAINTAINED ON ETHINYL ESTRADIOL CONTAINING DIET (0.75 PPM) FOR 1 WK CYCLED WITH ETHINY, Promoter: ETHINYL ESTRADIOL, 57-63-6","4/10 (40%), 4/11 (36%), 10%, not significant"
same,"tumour outcome (control, treated, inhibition, significance)","Carcinogen: 3,2'-DIMETHYL-4-AMINOBIPHENYL, 13394-86-0, Dose [Inhibitor]: 0, 0.8% IN BASAL DIET BEGINNING POST CARCINOGEN TREATMENT AND CONTINUING FOR 40 WK (STUDY DURATION: 60 WK), Route [Inhibitor]: ORAL, Species: RAT, Strain/Sex: F344/MALE, Target Tissue: Type of Lesion: PREPUTIAL GLAND: ADENOMA AND CARCINOMA, Dose [Carcinogen]: 50 MG/KG 1/2 WK FOR 20 WK TO RATS MAINTAINED ON ETHINYL ESTRADIOL CONTAINING DIET (0.75 PPM) FOR 1 WK CYCLED WITH ETHINY, Promoter: ETHINYL ESTRADIOL, 57-63-6","5/10 (50%), 4/11 (36%), 28%, not significant"
same,"tumour outcome (control, treated, inhibition, significance)","Carcinogen: 3,2'-DIMETHYL-4-AMINOBIPHENYL, 13394-86-0, Dose [Inhibitor]: 0, 0.8% IN BASAL DIET BEGINNING POST CARCINOGEN TREATMENT AND CONTINUING FOR 40 WK (STUDY DURATION: 60 WK), Route [Inhibitor]: ORAL, Species: RAT, Strain/Sex: F344/MALE, Target Tissue: Type of Lesion: PROSTATE: CARCINOMA, Dose [Carcinogen]: 50 MG/KG 1/2 WK FOR 20 WK TO RATS MAINTAINED ON ETHINYL ESTRADIOL CONTAINING DIET (0.75 PPM) FOR 1 WK CYCLED WITH ETHINY, Promoter: ETHINYL ESTRADOL, 57-63-6","5/10 (50%), 3/11 (27%), 46%, not significant"
same,"tumour outcome (control, treated, inhibition, significance)","Carcinogen: 3,2'-DIMETHYL-4-AMINOBIPHENYL, 13394-86-0, Dose [Inhibitor]: 0, 0.8% IN BASAL DIET BEGINNING POST CARCINOGEN TREATMENT AND CONTINUING FOR 40 WK (STUDY DURATION: 60 WK), Route [Inhibitor]: ORAL, Species: RAT, Strain/Sex: F344/MALE, Target Tissue: Type of Lesion: SMALL INTESTINE: ADENOMA AND ADENOCARCINOMA, Dose [Carcinogen]: 50 MG/KG 1/2 WK FOR 20 WK TO RATS MAINTAINED ON ETHINYL ESTRADIOL CONTAINING DIET (0.75 PPM) FOR 1 WK CYCLED WITH ETHINY, Promoter: ETHINYL ESTRADIOL, 57-63-6","2/10 (20%), 1/11 (9%), 55%, not significant"
same,"tumour outcome (control, treated, inhibition, significance)","Carcinogen: 3,2-DIMETHYL-4-AMINOBIPHENYL, 13394-86-0, Dose [Inhibitor]: 0, 0.8% IN BASAL DIET BEGINNING POST CARCINOGEN TREATMENT AND CONTINUING FOR 40 WK (STUDY DURATION: 60 WK), Route [Inhibitor]: ORAL, Species: RAT, Strain/Sex: F344/MALE, Target Tissue: Type of Lesion: ZYMBAL GLAND: ADENOMA AND CARCINOMA, Dose [Carcinogen]: 50 MG/KG 1/2 WK FOR 20 WK TO RATS MAINTAINED ON ETHINYL ESTRADIOL CONTAINING DIET (0.75 PPM) FOR 1 WK CYCLED WITH ETHINY, Promoter: ETHINYL ESTRADIOL, 57-63-6","2/10 (20%), 0/11 (0%), 100%, not significant"
same,"tumour outcome (control, treated, inhibition, significance)","Carcinogen: 7,12-DIMETHYLBENZ[A]ANTHRACENE, 57-97-6, Dose [Inhibitor]: 0, 0.4% IN DIET FOR 35 WK BEGINNING POST CARCINOGEN DOSE (STUDY DURATION: 36 WK), Route [Inhibitor]: ORAL, Species: RAT, Strain/Sex: SPRAGUE-DAWLEY/FEMALE, Target Tissue: Type of Lesion: EAR DUCT: TUMOR, Dose [Carcinogen]: 50 MG/KG BW IN CORN OIL ONCE, Promoter: NONE USED","5/15 (33%), 2/15 (13%), 61%, not significant"
same,"tumour outcome (control, treated, inhibition, significance)","Carcinogen: 7,12-DIMETHYLBENZ[A]ANTHRACENE, 57-97-6, Dose [Inhibitor]: 0, 0.4% IN DIET FOR 35 WK BEGINNING POST CARCINOGEN DOSE (STUDY DURATION: 36 WK), Route [Inhibitor]: ORAL, Species: RAT, Strain/Sex: SPRAGUE-DAWLEY/FEMALE, Target Tissue: Type of Lesion: MAMMARY GLAND: ADENOCARCINOMA, Dose [Carcinogen]: 50 MG/KG BW IN CORN OIL ONCE, Promoter: NONE USED","14/15 (93%), 15/15 (100%), -8%, not significant"
same,"tumour outcome (control, treated, inhibition, significance)","Carcinogen: 7,12-DIMETHYLBENZ[A]ANTHRACENE, 57-97-6, Dose [Inhibitor]: 0, 0.4% IN DIET FOR 35 WK BEGINNING POST CARCINOGEN DOSE (STUDY DURATION: 36 WK), Route [Inhibitor]: ORAL, Species: RAT, Strain/Sex: SPRAGUE-DAWLEY/FEMALE, Target Tissue: Type of Lesion: MAMMARY GLAND: FIBROADENOMA, Dose [Carcinogen]: 50 MG/KG BW IN CORN OIL ONCE, Promoter: NONE USED","3/15 (20%), 0/15 (0%), 100%, not significant"
same,"tumour outcome (control, treated, inhibition, significance)","Carcinogen: 7,12-DIMETHYLBENZ[A]ANTHRACENE, 57-97-6, Dose [Inhibitor]: 0, 12 MG 2/WK FOR 30 WK APPLIED 20 MIN PRIOR TO EACH PROMOTER DOSE (STUDY DURATION: 32 WK), Route [Inhibitor]: DERMAL, Species: MOUSE, Strain/Sex: SENCAR/FEMALE, Target Tissue: Type of Lesion: SKIN: PAPILLOMA, Dose [Carcinogen]: 25 NMOL ONCE, Promoter: M-CHLOROPEROXYBENZOIC ACID, 937-14-4","39%, 0%, 100%, not calculated"
same,"tumour outcome (control, treated, inhibition, significance)","Carcinogen: BENZO[A]PYRENE, 50-32-8, Dose [Inhibitor]: 2 MG IN 0.1 ML ACETONE 3/WK ADMINISTERED SIMULTANEOUSLY WITH CARCINOGEN FOR DURATION OF STUDY (STUDY DURATION: 368 D), Route [Inhibitor]: DERMAL, Species: MOUSE, Strain/Sex: ICR/FEMALE, Target Tissue: Type of Lesion: SKIN: PAPILLOMA, Dose [Carcinogen]: 5 UG IN 0.1 ML ACETONE 3/WK FOR DURATION OF STUDY, Promoter: NONE USED","14/50 (28%), 36/50 (72%), -157%, not calculated"
same,"tumour outcome (control, treated, inhibition, significance)","Carcinogen: BENZO[A]PYRENE, 50-32-8, Dose [Inhibitor]: 2 MG IN 0.1 ML ACETONE 3/WK ADMINISTERED SIMULTANEOUSLY WITH CARCINOGEN FOR DURATION OF STUDY (STUDY DURATION: 368 D), Route [Inhibitor]: DERMAL, Species: MOUSE, Strain/Sex: ICR/FEMALE, Target Tissue: Type of Lesion: SKIN: SQUAMOUS CARCINOMA, Dose [Carcinogen]: 5 UG IN 0.1 ML ACETONE 3/WK FOR DURATION OF STUDY, Promoter: NONE USED","10/50 (20%), 31/50 (62%), -210%, not calculated"
same,"tumour outcome (control, treated, inhibition, significance)","Carcinogen: N-BIS(2-HYDROXYPROPYL)NITROSAMINE, 53609-64-6, Dose [Inhibitor]: 0, 0.8% IN DIET FOR 30 WK BEGINNING POST CARCINOGEN TREATMENT (STUDY DURATION: 32 WK), Route [Inhibitor]: ORAL, Species: RAT, Strain/Sex: F344/MALE, Target Tissue: Type of Lesion: BLADDER: ADENOMA, Dose [Carcinogen]: 0.1% IN DRINKING WATER FOR 2 WK, Promoter: NONE USED","5%, 0%, 100%, not calculated"
